# Laboratory results published in ChEMBL document CHEMBL1150112, “Enhancement of contraction of rat mesenteric artery by acteoside: role of endothelial nitric oxide” (J Nat Prod, 2002).
# Activity calls are given as the source filed them. The rule behind the calls is not given here.
# Experiments:
# [1] = tested on: Mesenteric artery; assay: Potentiation of phenylepinephrine-induced contraction in endothelium-intact Sprague-Dawley rat mesenteric artery at 30 umol/L after 30 mins in presence of NG-nitro-L-arginine; type: functional, tissue-based
# [2] = tested on: Mesenteric artery; assay: Enhancement of phenylepinephrine-induced contraction in endothelium-intact Sprague-Dawley rat mesenteric artery at 30 umol/L after 30 mins in presence of co-treated 1H-[1,2,4]oxadiazolo[…]quinoxalin-1-one; type: functional, tissue-based
# [3] = tested on: Mesenteric artery; assay: Increase in phenylepinephrine-induced vessel tension in endothelium-intact Sprague-Dawley rat mesenteric artery at 30 umol/L in presence of tetraethylammonium; type: functional, tissue-based
# [4] = tested on: Mesenteric artery; assay: Potentiation of phenylepinephrine-induced contraction in endothelium-intact Sprague-Dawley rat mesenteric artery at 30 umol/L after 30 mins in presence of NG-nitro-L-arginine methyl ester; type: functional, tissue-based
# [5] = tested on: Artery; assay: Change in NS 1619-induced vasorelaxation in endothelium-denuded Sprague-Dawley rat mesenteric artery at 30 umol/L; type: functional, tissue-based
# [6] = tested on: Artery; assay: Change in hydroxylamine-induced vasorelaxation in endothelium-denuded Sprague-Dawley rat mesenteric artery at 30 umol/L after 30 mins; type: functional, tissue-based
# [7] = tested on: Mesenteric artery; assay: Potentiation of phenylepinephrine-induced vessel tension in endothelium-intact Sprague-Dawley rat mesenteric artery at 30 umol/L in presence of pretreated indomethacin; type: functional, tissue-based
# [8] = tested on: Mesenteric artery; assay: Potentiation of phenylepinephrine-induced contraction in endothelium-intact Sprague-Dawley rat mesenteric artery at 100 to 300 umol/L after 30 mins; type: functional, tissue-based
# [9] = tested on: Mesenteric artery; assay: Potentiation of phenylepinephrine-induced contraction in endothelium-denuded Sprague-Dawley rat mesenteric artery at 30 umol/L after 30 mins; type: functional, tissue-based
# [10] = tested on: Artery; assay: Attenuation of forskolin-induced vasorelaxation in endothelium-denuded Sprague-Dawley rat mesenteric artery at 30 umol/L; type: functional, tissue-based
# [11] = tested on: Mesenteric artery; assay: Potentiation of phenylepinephrine-induced contraction in endothelium-intact Sprague-Dawley rat mesenteric artery after 30 mins; type: functional
# [12] = Vasorelaxant activity in endothelium-intact Sprague-Dawley rat vascular smooth muscle at > 100 umol/L; type: functional
# [13] = tested on: Artery; assay: Attenuation of acetylcholine-induced vasorelaxation in endothelium-intact Sprague-Dawley rat mesenteric artery at 30 umol/L after 30 mins; type: functional, tissue-based
# [14] = tested on: Mesenteric artery; assay: Potentiation of phenylepinephrine-induced contraction in endothelium-intact Sprague-Dawley rat mesenteric artery at 30 umol/L after 30 mins; type: functional, tissue-based
# [15] = tested on: Artery; assay: Change in sodium nitroprusside-induced vasorelaxation in endothelium-denuded Sprague-Dawley rat mesenteric artery at 30 umol/L after 30 mins; type: functional, tissue-based
compound,measurement,setting,value
C[C@@H]1O[C@@H](O[C@@H]2[C@@H](O)[C@H](OCCc3ccc(O)c(O)c3)O[C@H](CO)[C@H]2OC(=O)/C=C/c2ccc(O)c(O)c2)[C@H](O)[C@H](O)[C@H]1O,Activity,[1],inactive
same,Activity,[2],inactive
same,Activity,[3],inactive
same,Activity,[4],inactive
same,Activity,[5],inactive
same,Activity,[6],inactive
same,Activity,[7],Active
same,Activity,[8],inactive
same,Activity,[9],inactive
same,Activity,[10],inactive
same,Activity,[11],Dose-dependent effect
same,Activity,[12],Active
same,Activity,[13],Active
same,Activity,[14],Active
same,Activity,[15],inactive
